Experiments:
Male Sprague Dawley rats [1] = conditions: 0.5% topical ocular b.i.d.; for Protection of retinal function compared to vehicle dosed rats: two drops per eye, 17 days before and 2 days after light exposure, ERG five days after
Experimental: The purpose of this experiment was to determine the degree of retinal protection that could be measured in rats following topical ocular dosing. Levobetaxolol (0.5%), (racemic) betaxolol (0.5%), and vehicle were evaluated in the photic retinopathy model. Induction of photochemical lesions and evaluation of retinal function with the ERG were performed as described in the photo-oxidative induced retinopathy paradigm used in Example 1.
Male Sprague Dawley rats were randomly assigned to either a vehicle dosed group (N=10), (racemic) betaxolol (0.5%) dosed group (N=10) or levobetaxolol (0.5%) dosed group (N=10). Rats were dosed topical ocular (b.i.d.) with two drops per eye. Rats were pre-dosed for 17 days prior to light exposure and dosed an additional two days after the light exposure. Control rats (N=4) were housed in their home cage under normal cyclic light exposure.

cortical cultures = conditions: in vitro; literature; cited from earlier work
Male Sprague Dawley rats [2] = assay: Photo-oxidative (blue-light) induced retinopathy, systemic IP dosing, ERG; conditions: for Protection of retina function against light-induced retinal degeneration: 20 and 40 mg/kg IP; for Persistence of protection after a 4-week recovery period: IP dosing
Source text: The purpose of Experiment 1 was to determine if selective β-adrenoceptor antagonists, in particular betaxolol (racemic), levobetaxolol (S-isomer), and betaxolol (R-isomer) are neuroprotective and can rescue retinal cells from a photo-oxidative induced retinopathy. The purpose of Experiment 2 was to determine the dose-dependent efficacy of timolol, a potent non-selective β1- and β2-blocker, in this photo-oxidative stress model. Male Sprague Dawley rats were randomly assigned to drug or vehicle experimental groups. Rats received three intraperitoneal (IP) injections of either vehicle or drug at 48, 24, and 0 hours prior to a 6-hour light exposure to spectrally filtered blue light (˜220 fc). Control rats were housed in their home cage under normal cyclic light exposure. Control rats were not dosed with either vehicle or drug. The ERG is a non-invasive clinical measurement of the electrical response of the eye to a flash of light. The a-wave and b-wave are two components of the ERG that are diagnostic of retinal function. The a-wave reflects outer retina function and is generated by interactions between photoreceptor and RPE while the b-wave reflects inner retina function, particularly on-bipolar cells. […] Changes in the a-wave amplitude or latency are diagnostic of outer retina pathology. The ERG was recorded after a five day recovery period from dark-adapted anesthetized rats (ketamine-HCl, 75 mg/Kg; xylazine, 6 mg/Kg). The eye's electrical response to a flash of light was elicited by viewing a ganzfeld. ERGs to a series of light flashes increasing in intensity were digitized to analyze temporal characteristics of the waveform and response voltage-log intensity relationship.

[3] = test system: rat ischemia/reperfusion injury model; conditions: literature; cited from earlier work
chick retinal cells = conditions: in vitro; literature; cited from earlier work
rabbit inner retina = conditions: in vitro; literature; cited from earlier work
[4] = Light damage paradigms: prevention of light-induced functional or morphological changes; assay type: in vivo; conditions: applicant's light damage paradigms
bFGF mRNA = assay: Retinal bFGF mRNA upregulation, Northern blot after single IP injection; conditions: single IP injection 20 mg/kg; retina harvested after 12 hours in the dark; bFGF/18S
CNTF mRNA = assay: Retinal CNTF mRNA upregulation, Northern blot after single IP injection; conditions: single IP injection 20 mg/kg; retina harvested after 12 hours in the dark; CNTF/18S
[5] = test system: P23H mutant rhodopsin transgenic rats
Experimental: The P23H rhodopsin mutated transgenic rat has a specific rhodopsin mutation that has been identified in subsets of patients with RP. This degeneration is characterized by a slow degeneration of retinal photoreceptors and marked reduction in the electroretinogram. As in light damage, photoreceptor loss is primarily through an apoptotic process.
At the time of weaning, rats are randomly assigned to either a drug or vehicle group. Rats were dosed (oral gavage) with vehicle or levobetaxolol (40 mg/kg,) every other day. […] ERGs were recorded as described in Example 1.

CC(C)NCC(O)COc1ccc(CCOCC2CC2)cc1 (racemic) [betaxolol (racemic), betaxolol]
ERG response amplitudes vs vehicle dosed rats (Male Sprague Dawley rats [1]): higher but not significantly different | Protection of retinal function compared to vehicle dosed rats (Male Sprague Dawley rats [1]): No significant protection | Glutamate-induced release of lactate dehydrogenase (cortical cultures): partially prevented | Maximum a-wave response amplitude, fold higher than vehicle dosed rats (Male Sprague Dawley rats [2]; 20 mg/kg IP at 48, 24, 0 h before 6-hour blue light, 5-day recovery): 1.9 fold | Maximum a-wave response amplitude, fold higher than vehicle dosed rats (Male Sprague Dawley rats [2]; 40 mg/kg IP at 48, 24, 0 h before 6-hour blue light, 5-day recovery): 2.1 fold | Protection of retina function against light-induced retinal degeneration (Male Sprague Dawley rats [2]; 5-day recovery): dose-dependent protection | ERG b-wave deficit after ischemia/reperfusion [3]: protected | Kainate induced elevation of intracellular calcium (chick retinal cells): prevent | Changes in GABA immunoreactivity following glucose-oxygen deprivation (rabbit inner retina): partially inhibited

CC(C)NCC(O)COc1ccc(CCOCC2CC2)cc1 (stereo not drawn) [Betaxolol (R-isomer), betaxolol]
Protection of retina function against light-induced retinal degeneration (Male Sprague Dawley rats [2]; 5-day recovery): Partial but significant protection | ERGs, % of normal (Male Sprague Dawley rats [2]; 20 or 40 mg/kg IP): approximately 64% | Persistence of protection after a 4-week recovery period (Male Sprague Dawley rats [2]): persisted

Cc1c(C)c2c(c(C)c1O)CC[C@@](C)(CCC[C@H](C)CCC[C@H](C)CCCC(C)C)O2 [alpha-tocopherol]
Effectiveness in preventing light-induced functional or morphological changes [4]: ineffective

Brc1c(NC2=NCCN2)ccc2nccnc12 [brimonidine]
Increase in bFGF mRNA expression (bFGF mRNA): 14 fold | CNTF mRNA expression upregulation, factor compared to background expression (CNTF mRNA): not upregulated

Fc1ccc(C(c2ccc(F)cc2)N2CCN(C/C=C/c3ccccc3)CC2)cc1 [flunarizine]
Effectiveness in preventing light-induced functional or morphological changes [4]: moderately effective

CC(C)NC[C@H](O)COc1ccc(CCOCC2CC2)cc1 [levobetaxolol]
Increase in bFGF mRNA expression (bFGF mRNA): 13 fold | Amelioration of photic induced retinopathy (retinal function vs control rats) (Male Sprague Dawley rats [1]): completely to ameliorated | Protection of retinal function compared to vehicle dosed rats (Male Sprague Dawley rats [1]): significant protection | CNTF mRNA expression upregulation, factor compared to background expression (CNTF mRNA): 2.3 | ERG amplitude relative to vehicle-dosed rats (Male Sprague Dawley rats [2]; 20 mg/kg IP, 5-day recovery): twice | ERG amplitudes, % of normal (Male Sprague Dawley rats [2]; 20 mg/kg IP, 5-day recovery): 69% | Protection of the retinal response to a flash of light (Male Sprague Dawley rats [2]; 40 mg/kg IP, 5-day recovery): Complete protection | Protection of retina function against light-induced retinal degeneration (Male Sprague Dawley rats [2]; 5-day recovery): significant protection | Persistence of protection after a 4-week recovery period (Male Sprague Dawley rats [2]): persisted | Outer retinal function, % better than vehicle dosed rats ([5]; 40 mg/kg oral every other day, 6-month old rats): 32% | Loss of retinal function compared to vehicle dosed rats ([5]; 40 mg/kg oral gavage every other day, 3- and 6-month old rats): significantly attenuated

COCCOC(=O)C1=C(C)NC(C)=C(C(=O)OC(C)C)C1c1cccc([N+](=O)[O-])c1 (stereo not shown) [nimodipine]
Effectiveness in preventing light-induced functional or morphological changes [4]: no effect

Source: US8710102B2, “Use of beta-adrenoceptor antagonists for the manufacture of a medicament of the treatment of disorders of the outer retina” (Novartis AG, priority 1999, dated 2014)
